# Experimental data from patent publication US20090196930A1, “AEROSOLIZED NITRITE AND NITRIC OXIDE -DONATING COMPOUNDS AND USES THEREOF” (Aires Pharmaceuticals, Inc., priority 2007, published 2009).
# Like-named read-outs stand apart in the source and are kept apart here.
# What was measured:
# [1] = NAL DPI formulation, monodose DPI device, in vitro; cited from earlier work
# [2] = tested on: phenylepherine-induced contractions of aortic rings; assay: Isolated rat aortic ring relaxation
# Source text: The isolated rat aortic ring model tests whether a drug solution reduces the phenylepherine-induced pre-contractions of aortic rings. Briefly, rat aorta was excised and cleansed of fat and adhering tissue. Vessels were then cut into individual ring segments (2-3 mm in width) and suspended from a force-displacement transducer in a tissue bath. […] A passive load of 2 grams was applied to all ring segments and maintained at this level throughout the experiments. At the beginning of each experiment, indomethacin-treated ring segments were depolarized with KCl (70 mM) to determine the maximal contractile capacity of the vessel. Rings were then washed extensively and allowed to equilibrate. For subsequent experiments, vessels were submaximally contracted (50% of KCl response) with phenylephrine (PE) (3×10^−8-10^−7 M).
# Briefly, a rat aorta was excised and cleansed of fat and adhering tissue. Vessels were then cut into individual ring segments (2-3 mm in width) and suspended from a force-displacement transducer in a tissue bath. […] A passive load of 2 grams was applied to all ring segments and maintained at this level throughout the experiments. At the beginning of each experiment, indomethacin-treated ring segments were depolarized with KCl (70 mM) to determine the maximal contractile capacity of the vessel. Rings were then washed extensively and allowed to equilibrate. […]
# [3] = cited from earlier work
Compound,pKa ([3]; exemplary buffers of Table 2),further results
L-lysine-N-acetylcysteinate [NAL],,fine particle fraction (FPF) of the nominal dose [1]: at least 30%
CCCc1nn(C)c2c(=O)[nH]c(-c3cc(S(=O)(=O)N4CCN(C)CC4)ccc3OCC)nc12 [Sildenafil],,"reduction in phenylepherine-induced aortic constriction ([2]; 50 nM sildenafil): ~50%; EC50 ([2]; relaxation of phenylephrine-contracted rat aortic rings, read-out: ED50 (the source's name)): 50 nM"
"CC(C)(CO)NCC(O)CS(=O)(=O)O (centres unmarked) [AMPSO, N-(1,1-dimethyl-2-hydroxyethyl)-3-amino-2-hydroxypropane-sulfonic acid]",9.0,
"O=S(=O)(O)CCN1CCN(CCS(=O)(=O)O)CC1 [PIPES, Piperazine-N,N′-bis(2-ethanesulfonic acid)]",6.8,pKa ([3]; exemplary buffers of Table 1): 6.76
"O=S(=O)(O)CCN(CCO)CCO [BES, N,N-Bis(2-hydroxyethyl)-2-aminoethanesulfonic acid]",7.1,
"NC(=O)CN(CC(=O)O)CC(=O)O [ADA, N-(2-ametamino)iminodiacetic acid]",6.6,pKa ([3]; exemplary buffers of Table 1): 6.60
"O=S(=O)(O)CCNC1CCCCC1 [CHES, 2-(cyclohexylamino)ethanesulfonic acid]",9.3,
"OCC(CO)(CO)NCCCNC(CO)(CO)CO [BIS-TRIS Propane, 1,3-Bis[tris(hydroxymethyl)methylamino]propane]",6.8,
"O=S(=O)(O)CCCN1CCN(CCO)CC1 [EPPS, N-(2-hydroxyethyl)piperazine-N′-(3-propanesulfonic acid)]",8.0,
O=C(O)CNC(CO)(CO)CO [Tricine],8.1,
"O=S(=O)(O)CC(O)CNC(CO)(CO)CO (centres unmarked) [TAPSO, 2-hydroxy-3-[tris(hydroxymethyl)methylamino]-1-propanesulfonic acid]",7.6,
